Experimental data published in US5512269A, “Method of treating retained pulmonary secretions” (priority 1993, dated 1996).

Legend:
normal airway epithelium = assay: Ussing chamber short circuit current (Isc) Cl- secretory response, normal airway epithelium primary cultures; format: cell-based, human
[1] = tested on: sheep airway surface liquid; conditions: sheep model, W. Mentz et al.; cited from earlier work
[2] = tested on: Mycobacterium tuberculosis 65021; format: cell-based; conditions: for susceptibility of strain 65021 to drug: streptomycin 6 μg/ml, isoniazid 0.2 μg/ml, rifampin 2 μg/ml, ethambutol 7.5 μg/ml
[3] = tested on: Mycobacterium tuberculosis 57778; format: cell-based; conditions: for susceptibility of strain 57778 to drug: streptomycin 6 μg/ml, isoniazid 0.2 μg/ml, rifampin 2 μg/ml, ethambutol 7.5 μg/ml
[4] = tested on: Mycobacterium tuberculosis drug sensitive laboratory strain; format: cell-based; conditions: for susceptibility of drug-sensitive laboratory strain to drug: streptomycin 6 μg/ml, isoniazid 0.2 μg/ml, rifampin 2 μg/ml, ethambutol 7.5 μg/ml
[5] = tested on: Mycobacterium tuberculosis 63169; format: cell-based; conditions: for susceptibility of strain 63169 to drug: streptomycin 6 μg/ml, isoniazid 0.2 μg/ml, rifampin 2 μg/ml, ethambutol 7.5 μg/ml
CF airway epithelium = conditions: 10^-6 M
Source text: 1. Ussing Chamber Studies: The Cl^- secretory response to stimulation of normal and CF airway epithelium was studied under short circuit (Isc) conditions employing tissues mounted in Ussing chambers. Ussing chambers are well known in the art and the manner of their use in the present example would be readily apparent to one skilled in the art.

[6] = tested on: CFT43 cell line (phospholipase C, inositol phosphates); conditions: CFT43 cells, duramycin stimulation
Source text: (§1) 4. Mechanisms of Action: Preliminary studies were also done investigating possible mechanisms of action.

[7] = tested on: CFT43 cell line (intracellular cAMP); conditions: CFT43 cells, duramycin stimulation
Source text: as §1

[8] = tested on: canine trachea airway surface liquid; conditions: dog
Procedure: 1. The Animal Model: The model developed employed 30 kg male dogs that were anesthetized with intravenous pentobarbital and maintained on a intravenous infusion of normal saline at 75 cc/hour. The dogs were intubated. Ventilatory support was provided by a Harvard™ piston pump. Adequate ventilation and oxygenation were documented by arterial blood gas studies. Peak airway pressures (PAP) were measured and continuous monitoring of hemoglobin saturation was accomplished by pulse oximetry.
Drug and vehicle were delivered through the endotracheal tube. The drug was nebulized employing a Pulmo-Aid™ Compressor and a DeVilbiss™ nebulizer. The drug (50 μM; 3 ml) in a saline vehicle or the saline vehicle alone (control) was nebulized for 6 minutes during which 0.7 ml thereof was delivered to the animal. […] After 6 minutes, a clean and dry nebulizer was exchanged for the test nebulizer containing the drug or vehicle. The investigators were blinded as to whether drug or vehicle was given.
2. Measurements of airway fluid: Airway liquid measurements were made by applying dry preweighed filter paper to the cartilaginous portions of the airway for 20 seconds. This was accomplished employing transbronchial biopsy forceps to grasp the papers. The forceps and papers were stored in plastic catheters. Sampling the airway liquid was accomplished by first inserting the bronchoscope through the endotracheal tube. Care was taken not to allow contact between mucosa and the bronchoscope. The catheter containing the biopsy forceps and filter papers was introduced into the airway lumen through the channel in the bronchoscope. The biopsy forceps were then pushed out of the catheter and the filter papers gently applied to the mucosa. After 20 seconds the biopsy forceps and filter papers were pulled back into the catheter and removed through the bronchoscope for weighing. The filter papers were accessed for weighing by again pushing the forceps holding the filter paper out of the catheter. In order to account for evaporative losses from the filter papers when exposed to room air, the time required to place the papers on the scales and perform the initial weighing was recorded. Three subsequent weighings over time were then made. A regression line was calculated. The weight of the filter papers at time zero, that is when they were maximally wet, was defined as the time when the filter papers were pushed out of the catheter after having been applied to the airway mucosa. The amount of fluid on the filter paper was taken as the difference between the dry weight of the papers and their weight at time zero. Each set of samples to be compared were further corrected for differences in the initial weight of the dry filter papers.
The goal of the first protocol was to study the effects on airway surfaces liquid of (1) repeatedly sampling the airway, and (2) nebulizing the normal saline vehicle.
Protocol 1 required, immediately prior to conducting the test studies, weighing and loading the filter papers into catheters. Ten separate catheter-forceps-filter paper set-ups were available. Ten measurements of airway liquid were then made in different areas of the trachea over a thirty-minute period, with measurements made at three minute intervals. The catheters were then reloaded and the saline vehicle nebulized onto the airway. Ten more measurements of airway surface liquid were then made over another thirty minute period.
Protocol 2 required sampling the airway every four minutes to obtain 30 measurements of airway liquid. This required reloading the 10 catheters twice during each experiment. Each reloading required 20 minutes. This protocol allowed the airway to be sampled over 160 minutes. Drug and vehicle administration were separated by one week in any one animal.

Compound: Nc1ncnc2c1ncn2[C@@H]1O[C@H](COP(=O)(O)OP(=O)(O)OP(=O)(O)O)[C@@H](O)[C@H]1O [ATP, reference compound]
- time course of Cl- secretory response (Isc) (normal airway epithelium; comparison agonist): rapid onset of action and a rapid return to the baseline current

Compound: N=C(N)NC(=O)c1nc(Cl)c(N)nc1N [amiloride]
- increase in airway fluid after amiloride treatment [1]: ~50%

Compound: CC[C@@H](CO)NCCN[C@@H](CC)CO [ethambutol]
- susceptibility of strain 65021 to drug [2]: partially resistant
- susceptibility of strain 57778 to drug [3]: sensitive
- susceptibility of drug-sensitive laboratory strain to drug [4]: sensitive
- susceptibility of strain 63169 to drug [5]: sensitive

Compound: NNC(=O)c1ccncc1 [isoniazid]
- susceptibility of strain 65021 to drug [2]: resistant
- susceptibility of strain 57778 to drug [3]: resistant
- susceptibility of drug-sensitive laboratory strain to drug [4]: sensitive
- susceptibility of strain 63169 to drug [5]: resistant

Compound: CO[C@H]1/C=C/O[C@@]2(C)Oc3c(C)c(O)c4c(O)c(c(/C=N/N5CCN(C)CC5)c(O)c4c3C2=O)NC(=O)/C(C)=C\C=C\[C@H](C)[C@H](O)[C@@H](C)[C@@H](O)[C@@H](C)[C@H](OC(C)=O)[C@@H]1C [rifampin]
- susceptibility of strain 65021 to drug [2]: resistant
- susceptibility of strain 57778 to drug [3]: resistant
- susceptibility of drug-sensitive laboratory strain to drug [4]: sensitive
- susceptibility of strain 63169 to drug [5]: resistant

Compound: [H]/N=C(/N)N[C@H]1[C@H](O)[C@@H](O)[C@H](O[C@@H]2O[C@@H](C)[C@](O)(C=O)[C@H]2O[C@@H]2O[C@@H](CO)[C@H](O)[C@@H](O)[C@@H]2NC)[C@@H](N/C(N)=N\[H])[C@@H]1O [streptomycin]
- susceptibility of strain 65021 to drug [2]: resistant
- susceptibility of strain 57778 to drug [3]: resistant
- susceptibility of drug-sensitive laboratory strain to drug [4]: sensitive
- susceptibility of strain 63169 to drug [5]: sensitive

Compound: duramycin
- Cl- secretory response (change in Isc) in CF tissue relative to normal tissue (CF airway epithelium): approximately twice
- Cl- secretory response in CF tissue (CF airway epithelium; five CF tissues): significant Cl^- secretory response
- activity on growth (growth index over 12 days), strain 65021 ([2]; 100 μM duramycin): significantly more activity against this strain than any of the four traditional anti-tuberculosis drugs tested
- inositol phosphates (IPs) produced [6]: no detectable amounts of IPs
- intracellular cAMP levels [7]: did not cause intracellular cAMP levels to rise
- activity on growth (growth index over 12 days), strain 57778 ([3]; 100 μM duramycin): equally as effective as ethambutol
- activity on growth (growth index over 12 days), drug-sensitive laboratory strain ([4]; 100 μM duramycin): less active in vitro than streptomycin, isoniazid, rifampin, or ethambutol
- peak Isc (Cl- current) after duramycin (normal airway epithelium; 10^-6 M duramycin, normal tissues after amiloride and forskolin (10 μM), baseline 20 μA/cm^2 after amiloride): 50 μA/cm^2
- Cl- secretory response in normal tissue (normal airway epithelium; 10^-6 M, seven normal tissues): significant Cl^- secretory response
- Isc response to duramycin, control bathing solution (normal airway epithelium; 10^-6 M, solution containing both Na+ and Cl-): responded by increasing the Isc
- Isc response to duramycin, Cl- free bathing solution (normal airway epithelium; 10^-6 M, solution without Cl-): markedly attenuated response
- Isc response to duramycin, Na+ free bathing solution (normal airway epithelium; 10^-6 M, solution without Na+): responded by increasing the Isc
- concentration giving maximal response (normal airway epithelium; dose response study): 10^-6 M
- ED50 (normal airway epithelium; dose response study, Isc response): 300 nM
- duration of increase in Isc (Cl- secretory response) (normal airway epithelium; in some instances): > 1 h
- activity on growth (growth index over 12 days), strain 63169 ([5]; 100 μM duramycin): approximately equal to that of the two drugs now known to be effective against this strain
- increase in amount of fluid recovered over baseline, Protocol 2 ([8]; 160 minutes, vehicle first then duramycin one week later): several-fold increase
- return of airway surface liquid to baseline ([8]; Protocol 1): did not return to baseline even two hours following its administration
- surface airway liquid after vehicle one week following duramycin ([8]; Protocol 2, duramycin given first): remained elevated
- amount of fluid recovered from the airway, Protocol 1 ([8]; nebulized duramycin, 30 minute measurement period): marked and sustained increase
- increase in airway surface liquid recovered compared to vehicle controls ([8]; vehicle first, p=0.0179 (paired), p=0.0335 (unpaired), n=6): significant
- average change in amount of fluid recovered ([8]; versus vehicle): doubling
